This note sets out measurements from patent US11440923B2, “Substituted macrocyclic indole derivatives” (Bayer Aktiengesellschaft, priority 2017, dated 2022).

SMILES strings stand for the structures. Structures can show the parent of a compound that is named as a salt. Where two headings read alike, the source gives them in different places.

One assay deals with SUDHL10 cells. In words: Induction of caspase-3/7 activity in SUDHL10 cells (Assay 4). The assay is classed as cell-based. An outline of the steps:
(§1)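 Caspase-3/7 activity measured in DLBCL lines after 3 h compound exposure at 37 °C, following overnight plating; Caspase-Glo 3/7 luminescence read after 1 h at 37 °C. Medium-only background subtracted, values normalized to mean of DMSO-treated cells.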

The next assay addresses BCL-2 (Homo sapiens (Human), UniProt P10415). In words: Protein-protein interaction assay BCL-2/Bad BH3 peptide (BCL-2 assay, TR-FRET). To be noted: read-out: BCL-2 Assay IC50 (median). The class given is binding. The method, then: Assay 3 Protein-Protein Interaction Assay: BCL-2/Bad BH3 Peptide (BCL-2 Assay)
The dose-dependent inhibition by the compounds described in this invention of the interaction between BCL-2 and the BH3 domain of Bad (both human) was determined using a steady state binding competition assay with time-resolved fluorescence energy transfer (TR-FRET) readout. For that purpose BCL-2 (amino acids 1-211, C-terminal fused to a hexahistidine (6×His) tag (SEQ ID 5) and a synthetic Bad BH3-derived peptide of sequence Biotin-PEG2-PEG2-[…]-Nle-[…]-amide (SEQ ID 4) served as protein receptor and tracer ligand respectively. The recombinant BCL-2 protein (expressed in E. coli) was purchased from BPS Bioscience (San Diego, Calif., USA). The Bad BH3-derived peptide can be obtained from e.g. Biosyntan (Berlin, Germany).
In the assay 11 different concentrations of each compound (0.1 nM, 0.33 nM, 1.1 nM, 3.8 nM, 13 nM, 44 nM, 0.15 μM, 0.51 μM, 1.7 μM, 5.9 μM and 20 μM) were typically measured as duplicates in the same microtiter plate. For that, 100-fold concentrated DMSO solutions were prepared by serial dilutions (1:3.4) of a 2 mM stock solution in a clear, 384-well microtiter plate (Greiner Bio-One, Frickenhausen, Germany). From there, 50 nl were transferred in a dark test plate (Greiner Bio-One, Frickenhausen, Germany). The assay was initiated by addition of 2 μL of a 2,5-fold concentrated His-BCL-2 solution (usually for a 1 nM end concentration in 5 μL reaction volume) in aqueous assay buffer [50 mM Tris/HCl pH 7, 100 mM sodium chloride (NaCl), 50 mM potassium fluoride (KF), 0.005% Tween-20, 2 mM DTT, 0.1% bovine gamma globulin (BGG)] to the compounds in the assay plate. This was followed by a 10-minute incubation step at 22° C. for pre-equilibration of the putative complex between His-BCL-2 and the compounds. After that, 3 μL of a 1.67-fold concentrated solution (in assay buffer) consisting of Bad BH3-derived peptide (1 nM end concentration) and TR-FRET detection reagents [1.67 nM anti-His-Eu cryptate and 1.67 nM streptavidin-XL665 (both from Cisbio Bioassays, Codolet, France)], were added.
The mixture was incubated in the dark for one hour at 22° C. and then overnight at 4° C. The formation of BCL-2/Bad complexes was determined by measuring the resonance energy transfer of the anti-His-Eu-cryptate antibody to the streptavidin-XL665 present in the reaction. For that purpose, the fluorescence emission at 620 nm and 665 nm after excitation at 330-350 nm was measured in a TR-FRET measuring instrument, for instance a Rubystar or a Pherastar (both from BMG Lab Technologies, Offenburg, Germany) or a Viewlux (Perkin-Elmer). The ratio of the emission at 665 nm and at 622 nm was used as indicator of the amount of BCL-2/Bad complexes present.
The resulting data (ratio) were normalized, taking 0% inhibition as the mean value of control measurements (usually 32 data points) where all reagents were included. In this case 50 nl DMSO were used instead of compounds. […] IC50 values were determined by regression analysis based on a 4 parameter equation (minimum, maximum, IC50, Hill; Y=Max+(Min−Max)/(1+(X/IC50)^Hill) using the Screener Software (Genedata).
Background: TR-FRET usually uses a lanthanide donor and a delayed reading to cut background.

The next assay deals with SUDHL5 cells. In words: Induction of caspase-3/7 activity in SUDHL5 cells (Assay 4). The class given is cell-based. An outline of the steps: as §1
For the next assay, the system named is AMO-1 cells. In words: Antiproliferation assay AMO-1 (Assay 7). The assay is classed as cell-based. An outline of the steps: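 Using a parallel time-zero plate as baseline, the anti-proliferative effect was assessed by CellTiter-Glo after 72 h compound incubation at 37 °C. IC50 was computed from day 0 and DMSO control values.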
Where [1] appears, read: Homo sapiens, SU-DHL10, 3 h, caspase-3/7 induction, 3 h; read-out: Caspase SUDHL10 EC50 (median).
[2] abbreviates: Homo sapiens, SU-DHL-5, 3 h, caspase-3/7 induction, 3 h; read-out: Caspase SUDHL5 EC50 (median).
Where [3] appears, read: Homo sapiens, AMO1, 72 h, 72 h, CellTiter-Glo; read-out: Antiproli AMO-1 IC50 median.
Where [4] appears, read: read-out: Caspase SUDHL10 EC50 (median); caspase-3/7 induction, 3 h.
Where [5] appears, read: read-out: Caspase SUDHL5 EC50 (median); caspase-3/7 induction, 3 h.
Where [6] appears, read: read-out: Antiproli AMO-1 IC50 median; 72 h, CellTiter-Glo.

BCL-2, sequence (P10415 1-211): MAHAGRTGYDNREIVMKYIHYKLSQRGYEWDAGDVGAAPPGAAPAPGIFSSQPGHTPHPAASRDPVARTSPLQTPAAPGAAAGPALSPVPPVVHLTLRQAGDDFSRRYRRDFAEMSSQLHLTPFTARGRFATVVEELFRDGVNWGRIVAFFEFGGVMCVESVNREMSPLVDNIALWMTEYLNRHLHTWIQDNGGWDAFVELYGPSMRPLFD

In general, EC50 refers to the concentration that produces a half-maximal response. Broadly, the IC50 is the point on the concentration scale where inhibition reaches its midpoint. In the case of `CCc1c2c(nn1C)C(CCCN1CCOCC1)OCCCCn1c(C(=O)O)c(CCCOc3cccc4cc(F)ccc34)c3ccc(Cl)c-2c31` (racemic) [Example 65, (rac)-4-chloro-3-ethyl-7-{3-[(6-fluoronaphthalen-1-yl)oxy]propyl}-2-methyl-(15-rac)-[3-(morpholin-4-yl)propyl]-2,10,11,12,13,15-hexahydropyrazolo[4′,3′:9,10][1,6]oxazacycloundecino[8,7,6-hi]indole-8-carboxylic Acid], the EC50 in the assay on SUDHL10 cells (setting [1]) turned out to be 42 nM; in the assay with SUDHL5 cells (setting [2]) it was 48 nM. In addition, the IC50 on BCL-2 is greater than 20000 nM; with AMO-1 cells (setting [3]), 89.7 nM.

As for `CCc1c2c(nn1C)C(CCN1CCC(F)(F)C1)OCCCCn1c(C(=O)O)c(CCCOc3cccc4cc(F)ccc34)c3ccc(Cl)c-2c31` (racemic) [Example 55, (rac)-4-chloro-(15-rac)-[2-(3,3-difluoropyrrolidin-1-yl)ethyl]-3-ethyl-7-{3-[(6-fluoronaphthalen-1-yl)oxy]propyl}-2-methyl-2,10,11,12,13,15-hexahydropyrazolo[4′,3′:9,10][1,6]oxazacycloundecino[8,7,6-hi]indole-8-carboxylic acid—2-hydroxypropane-1,2,3-tricarboxylic Acid Salt], the EC50 worked out at 47 nM in the assay with SUDHL10 cells (setting [1]) and 32 nM in the assay with SUDHL5 cells (setting [2]). In addition, the IC50 at BCL-2 is greater than 20000 nM; with AMO-1 cells (setting [3]) it was 75.3 nM.

Regarding `Cc1c2c(nn1C)C(CCN1CCOCC1)OCCCCn1c(C(=O)O)c(CCCOc3cccc4ccccc34)c3ccc(Cl)c-2c31` (racemic) [Example 13, (rac)-4-chloro-2,3-dimethyl-15-[2-(morpholin-4-yl)ethyl]-7-{3-[(naphthalen-1-yl)oxy]propyl}-2,10,11,12,13,15-hexahydropyrazolo[4′,3′:9,10][1,6]oxazacycloundecino[8,7,6-hi]indole-8-carboxylic Acid], the results for the EC50 in the assay with SUDHL10 cells (setting [1]) and with SUDHL5 cells (setting [2]) were 140 nM and 77 nM, respectively. For the same compound, the values for the IC50 on BCL-2 and with AMO-1 cells (setting [3]) were greater than 20000 nM and 191 nM, respectively.

With `Cc1c2c(nn1C)C(CCN1CCOCC1)OCCCCn1c(C(=O)O)c(CCCOc3cccc4cc(F)ccc34)c3ccc(F)c-2c31` (single isomer, unassigned; enantiomer 2) [Example 21, 4-fluoro-7-{3-[(6-fluoronaphthalen-1-yl)oxy]propyl}-2,3-dimethyl-15-[2-(morpholin-4-yl)ethyl]-2,10,11,12,13,15-hexahydropyrazolo[4′,3′:9,10][1,6]oxazacycloundecino[8,7,6-hi]indole-8-carboxylic Acid (Enantiomer 2)], the EC50 worked out at 13000 nM in the assay on SUDHL10 cells (setting [1]) and 11000 nM with SUDHL5 cells (setting [2]). The IC50 at BCL-2 was greater than 20000 nM; in the assay with AMO-1 cells (setting [3]), greater than 33000 nM.

`CCc1c2c(nn1C)C(CCOC)OCCCCn1c(C(=O)O)c(CCCOc3cccc4cc(F)ccc34)c3ccc(Cl)c-2c31` (single isomer, unassigned; enantiomer 2) [Example 43, (−)-4-chloro-3-ethyl-7-{3-[(6-fluoronaphthalen-1-yl)oxy]propyl}-15-(2-methoxyethyl)-2-methyl-2,10,11,12,13,15-hexahydropyrazolo[4′,3′:9,10][1,6]oxazacycloundecino[8,7,6-hi]indole-8-carboxylic Acid—N-ethylethanamine Salt (Enantiomer 2)]: the results for the EC50 in the assay on SUDHL10 cells (setting [4]) and with SUDHL5 cells (setting [5]) were 24000 nM and 20000 nM, respectively. Further, the IC50 at BCL-2 came to 19300 nM; in the assay on AMO-1 cells (setting [6]), 20000 nM.

As to `CCc1c2c(nn1C)C(CCN1CCC(F)(F)C1)OCCCCn1c(C(=O)O)c(CCCOc3cccc4cc(F)ccc34)c3ccc(Cl)c-2c31` (single isomer, unassigned; enantiomer 1) [Example 56, 4-chloro-15-[2-(3,3-difluoropyrrolidin-1-yl)ethyl]-3-ethyl-7-{3-[(6-fluoronaphthalen-1-yl)oxy]propyl}-2-methyl-2,10,11,12,13,15-hexahydropyrazolo[4′,3′:9,10][1,6]oxazacycloundecino[8,7,6-hi]indole-8-carboxylic Acid—N-ethylethanamine Salt (Enantiomer 1)], the EC50 in the assay with SUDHL10 cells (setting [4]) came to 20 nM; in the assay on SUDHL5 cells (setting [5]), 18 nM. Besides, the IC50 is greater than 20000 nM on BCL-2 and 22.6 nM in the assay with AMO-1 cells (setting [6]).

As for `CCc1c2c(nn1C)C(CCOC)OCCCCn1c(C(=O)O)c(CCCOc3cccc4cc(F)ccc34)c3ccc(Cl)c-2c31` (racemic) [Example 41, (rac)-4-chloro-3-ethyl-7-{3-[(6-fluoronaphthalen-1-yl)oxy]propyl}-(15-rac)-(2-methoxyethyl)-2-methyl-2,10,11,12,13,15-hexahydropyrazolo[4′,3′:9,10][1,6]oxazacycloundecino[8,7,6-hi]indole-8-carboxylic Acid], the EC50 with SUDHL10 cells (setting [1]) is 130 nM; with SUDHL5 cells (setting [2]), 97 nM. The IC50 on BCL-2 was 18100 nM; in the assay on AMO-1 cells (setting [3]), 135 nM.

Turning to `Cc1c2c(nn1C)C(CCN1CCOCC1)OCCCCn1c(C(=O)O)c(CCCOc3cccc4ccccc34)c3ccc(Cl)c-2c31` (single isomer, unassigned; enantiomer 2) [Example 15, 4-chloro-2,3-dimethyl-15-[2-(morpholin-4-yl)ethyl]-7-{3-[(naphthalen-1-yl)oxy]propyl}-2,10,11,12,13,15-hexahydropyrazolo[4′,3′:9,10][1,6]oxazacycloundecino[8,7,6-hi]indole-8-carboxylic Acid (Enantiomer 2)], the EC50 in the assay on SUDHL10 cells (caspase-3/7 induction, 3 h; read-out: Caspase SUDHL10 EC50 (median)) was 11000 nM; in the assay with SUDHL5 cells (caspase-3/7 induction, 3 h; read-out: Caspase SUDHL5 EC50 (median)) it was 2300 nM. In addition, the IC50 was greater than 20000 nM at BCL-2 and 10500 nM in the assay with AMO-1 cells (72 h, CellTiter-Glo; read-out: Antiproli AMO-1 IC50 median).

Turning to `CCC1OCCCCn2c(C(=O)O)c(CCCOc3cccc4ccccc34)c3ccc(Cl)c(c32)-c2c1nn(C)c2C` (single isomer, unassigned; enantiomer 1) [Example 29, (+)-4-chloro-15-ethyl-2,3-dimethyl-7-{3-[(naphthalen-1-yl)oxy]propyl}-2,10,11,12,13,15-hexahydropyrazolo[4′,3′:9,10][1,6]oxazacycloundecino[8,7,6-hi]indole-8-carboxylic Acid—N-ethylethanamine Salt (Enantiomer 1)], the EC50 in the assay on SUDHL10 cells (setting [4]) came out at 3700 nM; in the assay with SUDHL5 cells (setting [5]), 840 nM. In addition, the IC50 at BCL-2 is greater than 20000 nM; in the assay with AMO-1 cells (setting [6]), 4350 nM.

In the case of `Cc1c2c(nn1C)C(CCO)OCCCCn1c(C(=O)O)c(CCCOc3cccc4ccccc34)c3ccc(Cl)c-2c31` (racemic) [Example 26, (rac)-4-chloro-15-(2-hydroxyethyl)-2,3-dimethyl-7-{3-[(naphthalen-1-yl)oxy]propyl}-2,10,11,12,13,15-hexahydropyrazolo[4′,3′:9,10][1,6]oxazacycloundecino[8,7,6-hi]indole-8-carboxylic Acid], the EC50 with SUDHL10 cells (setting [1]) came to 980 nM; in the assay with SUDHL5 cells (setting [2]), 120 nM. In addition, the IC50 at BCL-2 was greater than 20000 nM; in the assay with AMO-1 cells (setting [3]) it was 577 nM.
